ChEMBL document CHEMBL4028801, “A multifactorial approach to hepatobiliary transporter assessment enables improved therapeutic compound development” (Toxicol Sci, 2013)
Values belong to the molecule of their own block, whether it stands above or below them.

Columns and labels:
[1] = target: T1, ATP-binding cassette sub-family C member 4 (Homo sapiens, UniProt O15439); assay: Inhibition of human MRP4 overexpressed in Sf9 cell membrane vesicles assessed as uptake of [3H]-estradiol-17beta-D-glucuronide in presence of ATP and GSH measured after 20 mins by membrane vesicle transport assay; assay type: ADME, cell-based
T1 sequence (O15439 whole entry): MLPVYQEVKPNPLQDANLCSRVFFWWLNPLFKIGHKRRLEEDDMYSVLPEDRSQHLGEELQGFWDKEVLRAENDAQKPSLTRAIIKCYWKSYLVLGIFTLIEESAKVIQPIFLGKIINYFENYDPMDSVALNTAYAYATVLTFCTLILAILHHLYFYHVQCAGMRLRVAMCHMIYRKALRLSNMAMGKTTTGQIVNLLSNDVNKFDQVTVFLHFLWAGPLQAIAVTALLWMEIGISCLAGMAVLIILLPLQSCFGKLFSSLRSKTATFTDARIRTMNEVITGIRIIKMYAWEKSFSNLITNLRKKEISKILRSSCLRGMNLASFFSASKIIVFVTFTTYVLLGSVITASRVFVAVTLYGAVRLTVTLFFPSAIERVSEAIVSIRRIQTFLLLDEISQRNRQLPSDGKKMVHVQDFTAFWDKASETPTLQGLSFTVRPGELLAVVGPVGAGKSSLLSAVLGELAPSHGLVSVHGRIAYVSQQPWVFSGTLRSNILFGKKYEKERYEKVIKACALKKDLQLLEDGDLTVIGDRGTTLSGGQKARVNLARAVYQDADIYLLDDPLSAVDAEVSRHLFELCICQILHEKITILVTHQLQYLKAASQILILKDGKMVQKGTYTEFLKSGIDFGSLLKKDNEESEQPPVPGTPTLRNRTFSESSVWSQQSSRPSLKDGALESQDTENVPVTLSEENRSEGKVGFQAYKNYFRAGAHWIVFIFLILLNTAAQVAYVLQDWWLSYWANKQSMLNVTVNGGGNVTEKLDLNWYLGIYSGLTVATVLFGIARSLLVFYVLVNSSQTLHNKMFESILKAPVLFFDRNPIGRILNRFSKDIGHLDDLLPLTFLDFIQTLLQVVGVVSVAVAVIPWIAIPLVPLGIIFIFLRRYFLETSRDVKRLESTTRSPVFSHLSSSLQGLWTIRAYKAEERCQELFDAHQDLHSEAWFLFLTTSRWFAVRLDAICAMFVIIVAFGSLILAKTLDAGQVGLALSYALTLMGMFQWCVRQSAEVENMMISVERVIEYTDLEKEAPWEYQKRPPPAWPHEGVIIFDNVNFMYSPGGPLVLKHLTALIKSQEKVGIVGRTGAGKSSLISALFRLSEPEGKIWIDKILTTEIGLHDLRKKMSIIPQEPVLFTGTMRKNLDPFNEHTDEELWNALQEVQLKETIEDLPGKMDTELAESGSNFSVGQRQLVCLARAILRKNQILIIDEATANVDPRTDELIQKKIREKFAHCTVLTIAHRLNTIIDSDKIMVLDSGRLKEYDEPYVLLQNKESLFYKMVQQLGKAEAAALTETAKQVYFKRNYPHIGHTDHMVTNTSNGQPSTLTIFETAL

[2] = target: ATP-binding cassette sub-family C member 2 (Homo sapiens, UniProt Q92887); assay: Inhibition of human MRP2 overexpressed in Sf9 cell membrane vesicles assessed as uptake of [3H]-estradiol-17beta-D-glucuronide in presence of ATP and GSH measured after 20 mins by membrane vesicle transport assay
[3] = Ratio of drug concentration at steady state in human at 60 to 250 mg, po QD after 12 hrs to IC50 for human BSEP overexpressed in Sf9 insect cells; assay type: ADME, organism-based; conditions: in vivo
[4] = AUC in human at 60 to 250 mg, po QD after 12 hrs; assay type: ADME, organism-based; conditions: in vivo
[5] = target: Bile salt export pump (Homo sapiens, UniProt O95342); assay: Inhibition of human BSEP overexpressed in Sf9 cell membrane vesicles assessed as uptake of [3H]-taurocholate in presence of ATP measured after 15 to 20 mins by membrane vesicle transport assay; assay type: ADME, cell-based
[6] = target: ATP-binding cassette sub-family C member 3 (Homo sapiens, UniProt O15438); assay: Inhibition of human MRP3 overexpressed in Sf9 insect cell membrane vesicles assessed as uptake of [3H]-estradiol-17beta-D-glucuronide in presence of ATP and GSH measured after 10 mins by membrane vesicle transport assay; assay type: ADME, cell-based
[7] = Drug concentration at steady state in human at 60 to 250 mg, po QD after 12 hrs; assay type: ADME, organism-based; conditions: in vivo, read-out: Css
[8] = Drug concentration at steady state in human at 400 mg, po BID after 12 hrs; assay type: ADME, organism-based; conditions: in vivo, read-out: Css
[9] = Ratio of drug concentration at steady state in human at 400 mg, po BID after 12 hrs to IC50 for human BSEP overexpressed in Sf9 insect cells; assay type: ADME, organism-based; conditions: in vivo
[10] = AUC in human at 400 mg, po BID after 12 hrs; assay type: ADME, organism-based; parameters: time < 12 hr, dose 400 mg, route oral; conditions: in vivo
[11] = Drug concentration at steady state in human at 15 mg, po QD for 14 days after 24 hrs; assay type: ADME, organism-based; conditions: in vivo, read-out: Css
[12] = Ratio of drug concentration at steady state in human at 15 mg, po QD for 14 days after 24 hrs to IC50 for human BSEP overexpressed in Sf9 insect cells; assay type: ADME, organism-based; conditions: in vivo
[13] = AUC in human at 15 mg, po QD for 14 days after 24 hrs; assay type: ADME, organism-based; parameters: dose 15 mg, time < 24 hr, route oral; conditions: in vivo
[14] = AUC in human at 0.075 to 0.26 mg/kg, po after 24 hrs; assay type: ADME, organism-based; conditions: in vivo
[15] = Ratio of drug concentration at steady state in human at 0.075 to 0.26 mg/kg, po after 24 hrs to IC50 for human MRP2 overexpressed in Sf9 insect cells; assay type: ADME, organism-based; conditions: in vivo
[16] = system: Homo sapiens; assay: Drug concentration at steady state in human at 0.075 to 0.26 mg/kg, po after 24 hrs; assay type: ADME, organism-based; conditions: in vivo
[17] = Ratio of drug concentration at steady state in human at 0.075 to 0.26 mg/kg, po after 24 hrs to IC50 for human BSEP overexpressed in Sf9 insect cells; assay type: ADME, organism-based; conditions: in vivo
[18] = Ratio of drug concentration at steady state in human at 1 to 16 mg or 4 to 8 mg, po QD extended-release tablets after 24 hrs to IC50 for human BSEP overexpressed in Sf9 insect cells; assay type: ADME, organism-based; conditions: in vivo
[19] = Ratio of drug concentration at steady state in human at 1 to 16 mg or 4 to 8 mg, po QD extended-release tablets after 24 hrs to IC50 for human MRP4 overexpressed in Sf9 insect cells; assay type: ADME, organism-based; conditions: in vivo
[20] = AUC in human at 1 to 16 mg or 4 to 8 mg, po QD extended-release tablets after 24 hrs; assay type: ADME, organism-based; conditions: in vivo
[21] = system: Homo sapiens; assay: Drug concentration at steady state in human at 1 to 16 mg or 4 to 8 mg, po QD extended-release tablets after 24 hrs; assay type: ADME, organism-based; conditions: in vivo
[22] = AUC in benign prostate hyperplasia patient at 5 mg, po QD after 24 hrs; assay type: ADME, organism-based; parameters: time < 24 hr, dose 5 mg, route oral; conditions: male, human, in vivo
[23] = Ratio of drug concentration at steady state in human in benign prostate hyperplasia patient at 5 mg, po QD after 24 hrs to IC50 for human MRP4 overexpressed in Sf9 insect cells; assay type: ADME, organism-based; conditions: in vivo
[24] = AUC in alopecia patient at 1 mg, po QD after 24 hrs; assay type: ADME, organism-based; parameters: time < 24 hr, dose 1 mg, route oral; conditions: human, in vivo
[25] = Ratio of drug concentration at steady state in human in alopecia patient at 1 mg, po QD after 24 hrs to IC50 for human BSEP overexpressed in Sf9 insect cells; assay type: ADME, organism-based; conditions: in vivo
[26] = Drug concentration at steady state in alopecia patient at 1 mg, po QD after 24 hrs; assay type: ADME, organism-based; conditions: human, in vivo, read-out: Css
[27] = Ratio of drug concentration at steady state in human in benign prostate hyperplasia patient at 5 mg, po QD after 24 hrs to IC50 for human BSEP overexpressed in Sf9 insect cells; assay type: ADME, organism-based; conditions: in vivo
[28] = Ratio of drug concentration at steady state in human in alopecia patient at 1 mg, po QD after 24 hrs to IC50 for human MRP4 overexpressed in Sf9 insect cells; assay type: ADME, organism-based; conditions: in vivo
[29] = Drug concentration at steady state in benign prostate hyperplasia patient at 5 mg, po QD after 24 hrs; assay type: ADME, organism-based; conditions: male, human, in vivo, read-out: Css

Sequence of Bile salt export pump (O95342 whole entry): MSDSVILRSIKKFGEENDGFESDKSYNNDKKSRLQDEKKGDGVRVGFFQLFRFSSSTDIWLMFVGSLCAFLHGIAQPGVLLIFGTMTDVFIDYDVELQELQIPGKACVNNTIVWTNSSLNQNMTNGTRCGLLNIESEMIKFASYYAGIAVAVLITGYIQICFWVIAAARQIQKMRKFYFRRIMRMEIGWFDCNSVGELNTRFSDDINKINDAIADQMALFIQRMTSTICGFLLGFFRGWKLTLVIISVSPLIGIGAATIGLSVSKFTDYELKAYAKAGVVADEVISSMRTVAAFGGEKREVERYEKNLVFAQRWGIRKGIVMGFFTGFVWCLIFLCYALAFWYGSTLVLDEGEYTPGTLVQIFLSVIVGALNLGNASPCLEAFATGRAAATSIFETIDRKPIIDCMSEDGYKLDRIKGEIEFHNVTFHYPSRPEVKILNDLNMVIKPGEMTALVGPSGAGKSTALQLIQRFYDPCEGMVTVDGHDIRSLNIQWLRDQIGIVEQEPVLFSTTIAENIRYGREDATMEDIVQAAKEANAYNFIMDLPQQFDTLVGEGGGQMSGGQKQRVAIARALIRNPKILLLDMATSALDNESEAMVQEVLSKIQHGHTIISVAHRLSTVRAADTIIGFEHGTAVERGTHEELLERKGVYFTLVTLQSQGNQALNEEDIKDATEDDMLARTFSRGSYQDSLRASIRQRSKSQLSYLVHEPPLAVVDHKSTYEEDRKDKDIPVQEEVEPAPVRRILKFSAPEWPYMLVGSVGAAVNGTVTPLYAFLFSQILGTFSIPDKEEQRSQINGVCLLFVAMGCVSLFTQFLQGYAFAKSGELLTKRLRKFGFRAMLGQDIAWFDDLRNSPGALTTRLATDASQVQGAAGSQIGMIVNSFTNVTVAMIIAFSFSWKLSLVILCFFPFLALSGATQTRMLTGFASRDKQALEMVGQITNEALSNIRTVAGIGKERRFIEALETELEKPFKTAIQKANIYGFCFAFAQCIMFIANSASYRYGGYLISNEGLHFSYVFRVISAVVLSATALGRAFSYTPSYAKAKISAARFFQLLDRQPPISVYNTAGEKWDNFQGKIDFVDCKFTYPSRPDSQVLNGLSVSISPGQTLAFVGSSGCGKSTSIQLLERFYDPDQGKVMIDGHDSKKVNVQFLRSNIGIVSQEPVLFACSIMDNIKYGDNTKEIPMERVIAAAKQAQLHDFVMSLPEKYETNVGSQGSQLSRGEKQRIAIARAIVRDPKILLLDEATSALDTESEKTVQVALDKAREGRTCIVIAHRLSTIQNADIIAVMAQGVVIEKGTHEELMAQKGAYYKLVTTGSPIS
Sequence of ATP-binding cassette sub-family C member 3 (O15438 whole entry): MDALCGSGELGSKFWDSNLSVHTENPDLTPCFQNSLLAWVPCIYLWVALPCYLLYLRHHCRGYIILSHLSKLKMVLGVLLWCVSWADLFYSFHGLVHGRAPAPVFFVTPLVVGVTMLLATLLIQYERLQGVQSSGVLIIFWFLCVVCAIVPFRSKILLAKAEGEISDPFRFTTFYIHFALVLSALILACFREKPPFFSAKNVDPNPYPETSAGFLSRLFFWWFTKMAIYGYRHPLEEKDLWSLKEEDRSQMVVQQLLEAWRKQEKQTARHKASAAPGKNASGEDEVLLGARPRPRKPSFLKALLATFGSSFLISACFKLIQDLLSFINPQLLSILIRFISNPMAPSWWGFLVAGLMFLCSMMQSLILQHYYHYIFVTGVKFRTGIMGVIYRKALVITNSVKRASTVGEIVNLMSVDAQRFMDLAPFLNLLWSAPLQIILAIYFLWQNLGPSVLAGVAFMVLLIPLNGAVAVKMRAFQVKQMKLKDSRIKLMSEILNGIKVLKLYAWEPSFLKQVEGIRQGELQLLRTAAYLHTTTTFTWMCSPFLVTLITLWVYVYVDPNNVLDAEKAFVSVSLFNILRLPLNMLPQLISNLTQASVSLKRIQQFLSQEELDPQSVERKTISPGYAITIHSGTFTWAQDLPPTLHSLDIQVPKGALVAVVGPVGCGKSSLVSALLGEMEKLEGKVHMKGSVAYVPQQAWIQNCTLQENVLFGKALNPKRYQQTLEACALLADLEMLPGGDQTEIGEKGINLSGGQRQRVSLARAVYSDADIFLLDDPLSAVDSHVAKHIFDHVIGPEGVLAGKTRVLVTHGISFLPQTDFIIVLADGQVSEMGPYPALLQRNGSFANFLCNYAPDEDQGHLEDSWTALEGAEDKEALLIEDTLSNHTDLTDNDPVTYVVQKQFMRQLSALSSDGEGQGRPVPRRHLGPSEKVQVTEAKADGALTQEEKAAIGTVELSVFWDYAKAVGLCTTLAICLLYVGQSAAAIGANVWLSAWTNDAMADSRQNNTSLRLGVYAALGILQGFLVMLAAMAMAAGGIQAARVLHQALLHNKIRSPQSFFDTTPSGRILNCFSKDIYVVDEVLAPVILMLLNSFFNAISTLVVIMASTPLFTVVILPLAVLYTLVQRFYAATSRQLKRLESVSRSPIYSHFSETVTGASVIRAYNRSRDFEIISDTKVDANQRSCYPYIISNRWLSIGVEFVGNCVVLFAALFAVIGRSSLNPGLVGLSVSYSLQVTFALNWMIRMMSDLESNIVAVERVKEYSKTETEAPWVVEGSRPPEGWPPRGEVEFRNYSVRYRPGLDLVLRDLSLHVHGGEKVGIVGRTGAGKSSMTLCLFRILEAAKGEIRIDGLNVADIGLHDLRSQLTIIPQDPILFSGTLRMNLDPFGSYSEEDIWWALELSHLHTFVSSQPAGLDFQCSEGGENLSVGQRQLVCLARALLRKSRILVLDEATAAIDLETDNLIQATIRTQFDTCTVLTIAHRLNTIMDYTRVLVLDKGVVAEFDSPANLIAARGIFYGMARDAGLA
Sequence of ATP-binding cassette sub-family C member 2 (Q92887 whole entry): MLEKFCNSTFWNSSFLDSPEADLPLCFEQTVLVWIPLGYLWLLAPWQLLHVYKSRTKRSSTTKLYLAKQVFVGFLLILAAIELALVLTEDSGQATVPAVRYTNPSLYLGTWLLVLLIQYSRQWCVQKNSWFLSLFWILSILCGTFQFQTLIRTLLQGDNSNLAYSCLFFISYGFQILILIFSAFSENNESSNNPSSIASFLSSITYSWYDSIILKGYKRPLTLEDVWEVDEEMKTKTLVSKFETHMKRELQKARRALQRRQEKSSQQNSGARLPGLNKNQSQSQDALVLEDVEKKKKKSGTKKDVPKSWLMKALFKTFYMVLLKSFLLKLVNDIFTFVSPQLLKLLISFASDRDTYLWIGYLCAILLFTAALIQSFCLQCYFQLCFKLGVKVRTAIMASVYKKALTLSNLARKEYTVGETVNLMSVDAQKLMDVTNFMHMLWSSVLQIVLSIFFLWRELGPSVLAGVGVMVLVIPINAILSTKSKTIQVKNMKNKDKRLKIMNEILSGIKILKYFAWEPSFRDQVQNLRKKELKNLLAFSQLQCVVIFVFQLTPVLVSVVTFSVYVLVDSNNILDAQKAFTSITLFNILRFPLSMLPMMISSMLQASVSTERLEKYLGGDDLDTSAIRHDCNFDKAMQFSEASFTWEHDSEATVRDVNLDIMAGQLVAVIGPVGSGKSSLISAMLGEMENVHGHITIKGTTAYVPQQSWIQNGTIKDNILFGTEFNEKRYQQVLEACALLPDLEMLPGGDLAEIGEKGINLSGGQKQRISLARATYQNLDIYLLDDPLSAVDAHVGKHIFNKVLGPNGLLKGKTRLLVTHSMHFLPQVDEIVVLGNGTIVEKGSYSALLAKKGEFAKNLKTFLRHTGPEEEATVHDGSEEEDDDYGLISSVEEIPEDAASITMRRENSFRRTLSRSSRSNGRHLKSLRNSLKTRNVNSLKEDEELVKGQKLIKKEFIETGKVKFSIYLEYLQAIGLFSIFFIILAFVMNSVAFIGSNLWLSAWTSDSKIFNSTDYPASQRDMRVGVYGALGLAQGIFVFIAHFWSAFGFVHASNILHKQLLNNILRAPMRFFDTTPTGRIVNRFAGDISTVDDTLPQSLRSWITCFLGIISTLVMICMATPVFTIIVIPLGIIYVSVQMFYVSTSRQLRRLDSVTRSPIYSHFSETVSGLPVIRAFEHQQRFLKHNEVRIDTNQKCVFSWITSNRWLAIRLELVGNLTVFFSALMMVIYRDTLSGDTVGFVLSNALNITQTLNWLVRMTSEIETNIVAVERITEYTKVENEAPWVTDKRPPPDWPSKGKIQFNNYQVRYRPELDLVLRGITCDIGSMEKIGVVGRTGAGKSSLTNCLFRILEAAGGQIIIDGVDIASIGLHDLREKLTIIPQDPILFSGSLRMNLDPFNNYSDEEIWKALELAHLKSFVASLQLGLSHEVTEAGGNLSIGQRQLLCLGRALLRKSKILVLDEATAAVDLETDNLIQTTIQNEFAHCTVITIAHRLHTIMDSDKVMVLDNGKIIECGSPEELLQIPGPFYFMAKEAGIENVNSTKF

Compound: CN1CCN(C2=Nc3ccccc3Oc3ccc(Cl)cc32)CC1.O=C(O)CCC(=O)O [LOXAPINE SUCCINATE]
IC50 [1]: > 133 µM | IC50 [2]: > 133 µM | Ratio [3]: 0.0004 | AUC at 12 h [4]: 369 nM·h | IC50 [5]: 77 µM | IC50 [6]: > 133 µM | concentration at 12 h [7]: 0.031 µM

Compound: COc1cc(NC(C)CCCN)c2ncccc2c1 (configuration not stated) [PRIMAQUINE]
concentration at 24 h [11]: 0.071 µM | IC50 [1]: > 133 µM | IC50 [2]: > 133 µM | Ratio [12]: 0.002 | AUC at 24 h [13]: 1710 nM·h | IC50 [6]: > 133 µM

Compound: C=CC[C@@H]1/C=C(\C)C[C@H](C)C[C@H](OC)[C@H]2O[C@@](O)(C(=O)C(=O)N3CCCC[C@H]3C(=O)O[C@H](/C(C)=C/[C@@H]3CC[C@@H](O)[C@H](OC)C3)[C@H](C)[C@@H](O)CC1=O)[C@H](C)C[C@@H]2OC [TACROLIMUS ANHYDROUS]
IC50 [1]: > 133 µM | IC50 [2]: 40.3 µM | AUC at 24 h [14]: 252 nM·h | Ratio [15]: 0 | Css [16]: 0.011 µM | Ratio [17]: 0.001 | IC50 [5]: 7.18 µM | IC50 [6]: > 133 µM

The next lines start with results.

concentration at 12 h [8]: 0.133 µM | IC50 [1]: > 133 µM | IC50 [2]: > 133 µM | IC50 [6]: > 133 µM | AUC at 12 h [10]: 1600 nM·h
Compound: CCCCc1oc2ccc(NS(C)(=O)=O)cc2c1C(=O)c1ccc(OCCCN(CCCC)CCCC)cc1.Cl [DRONEDARONE HYDROCHLORIDE]
Ratio [9]: 0.002 | IC50 [5]: 73.9 µM

IC50 [1]: 8 µM | Ratio [19]: 0.009 | AUC at 24 h [20]: 1640 nM·h | IC50 [2]: > 133 µM | Css [21]: 0.068 µM | IC50 [6]: > 133 µM
Compound: COc1cc2nc(N3CCN(C(=O)C4COc5ccccc5O4)CC3)nc(N)c2cc1OC.CS(=O)(=O)O (configuration not stated) [DOXAZOSIN MESYLATE]
Ratio [18]: 0.002 | IC50 [5]: 45 µM

IC50 [1]: 51 µM | AUC at 24 h [22]: 993 nM·h | IC50 [2]: > 133 µM | Ratio [23]: 0.001 | AUC at 24 h [24]: 993 nM·h | concentration at 24 h [26]: 0.041 µM | IC50 [6]: > 133 µM | Ratio [28]: 0.001 | concentration at 24 h [29]: 0.041 µM
Compound: CC(C)(C)NC(=O)[C@H]1CC[C@H]2[C@@H]3CC[C@H]4NC(=O)C=C[C@]4(C)[C@H]3CC[C@]12C [FINASTERIDE]
Ratio [25]: 0.00147 | Ratio [27]: 0.00147
